A short description of assay [1]: Inhibition of goat Ca2+-ATPase assessed as liberation of inorganic phosphate preincubated for 5 mins measured after 30 mins following ATP addition by colorimetric analysis in presence of Mg2+. On the set-up: species or system Capra hircus. To be noted: read-out: I50.
A short description of assay [2]: Inhibition of goat Ca2+-ATPase assessed as liberation of inorganic phosphate preincubated for 5 mins measured after 30 mins following ATP addition by colorimetric analysis in absence of Mg2+. To be noted: read-out: I50. Set-up: species or system Capra hircus.
Assay [3] is filed under the species Capra hircus. Description: Inhibition of goat Ca2+-ATPase assessed as liberation of inorganic phosphate preincubated for 5 mins measured after 30 mins following ATP addition by colorimetric analysis in presence of Mg2+ and 300 uM verapamil.
The species entered for assay [4] is Capra hircus. As to the kind of experiment: Inhibition of goat Ca2+-ATPase assessed as liberation of inorganic phosphate preincubated for 5 mins measured after 30 mins following ATP addition by colorimetric analysis in absence of Mg2+ and 300 uM verapamil.
The nature of assay [5]: Inhibition of sodium/potassium ATPAse.

The structures appear in SMILES notation. Calls of active or inactive are those of the source. The calls are words filed in the database; no cut-off is given here.

For the molecule `CCOC(=O)C1=C(C)NC(=O)NC1c1cccc([N+](=O)[O-])c1` (stereo not given), the IC50 in assay [1] worked out at 132 µM; in assay [2] it was 282 µM. The inhibition entry in assay [3] and in assay [4] was “Active” each time. In addition, the inhibition result in assay [5] is “inactive”.
`CCOC(=O)C1=C(C)NC(=O)NC1c1ccccc1Cl` (stereo not given): the IC50 in assay [1] came to 268 µM; in assay [2], 247 µM. For the same molecule, the inhibition result in assay [3] and in assay [4] was “Active” throughout. Besides, the inhibition entry in assay [5] is “inactive”.
Consider `CCOC(=O)C1=C(C)NC(=O)NC1c1ccc(O)cc1` (stereo not given), for which the IC50 in assay [1] worked out at 289 µM; in assay [2] it was 203 µM. Moreover, the inhibition entry in assay [3] and in assay [4] was “Active” in each case. Moreover, the inhibition result in assay [5] is “inactive”.
In the case of `CCOC(=O)C1=C(C)NC(=O)NC1c1ccccc1` (stereo not given), the IC50 came to 222 µM in assay [1] and 226 µM in assay [2]. The inhibition entry in assay [3] and in assay [4] was “Active” throughout. Further, the inhibition result in assay [5] is “inactive”.

These data come from ChEMBL document CHEMBL2040738, “Regioselective N1-alkylation of 3,4-dihydropyrimidine-2(1H)-ones: screening of their biological activities against Ca(2+)-ATPase” (Eur J Med Chem, 2012).
